Measured values reported in ChEMBL document CHEMBL5729726, “Tricyclic compounds as histone methyltransferase inhibitors” (2023).

What follows are compounds tested against T1, Histone-lysine N-methyltransferase EHMT2 (Homo sapiens, UniProt Q96KQ7) (assay: Enzymatic Activity Assay: For the assay, the following buffer was used to set up reactions: 50 mM Tris-HCl pH9, 50 mM NaCl, 0.01% Tween-20 and 1 mM DTT (added fresh prior to starting the reactions). The assay is set up by adding a final concentration of 0.15 nM G9a, 15 uM S-adenosyl-methionine and 100 nM biotinylated histone 3 peptide (1-21). The reaction is incubated at rt for 1 hour and subsequently quenched with the acceptor beads (anti-H3k9me2 AlphaLISA acceptor beads, Perkin Elmer #AL117) at a final concentration of 20 ug/mL. The acceptor beads are incubated for 1 hour. After 1 hour, the donor beads are added at a final concentration of 20 ug/mL (Alpha Streptavidin donor beads, PerkinElmer #6760002). Donor beads are incubated for 0.5 hours. Both donor and acceptor beads are resuspended in AlphaLISA 5X Epigenetics Buffer 1 Kit (PerkinElmer #AL008) prior to addition to the reaction. All manipulations and incubations with the donor and acceptor beads are done in subdued light. Signal is detected in an EnVision plate reader in Alpha mode.).
T1 sequence (Q96KQ7 whole entry): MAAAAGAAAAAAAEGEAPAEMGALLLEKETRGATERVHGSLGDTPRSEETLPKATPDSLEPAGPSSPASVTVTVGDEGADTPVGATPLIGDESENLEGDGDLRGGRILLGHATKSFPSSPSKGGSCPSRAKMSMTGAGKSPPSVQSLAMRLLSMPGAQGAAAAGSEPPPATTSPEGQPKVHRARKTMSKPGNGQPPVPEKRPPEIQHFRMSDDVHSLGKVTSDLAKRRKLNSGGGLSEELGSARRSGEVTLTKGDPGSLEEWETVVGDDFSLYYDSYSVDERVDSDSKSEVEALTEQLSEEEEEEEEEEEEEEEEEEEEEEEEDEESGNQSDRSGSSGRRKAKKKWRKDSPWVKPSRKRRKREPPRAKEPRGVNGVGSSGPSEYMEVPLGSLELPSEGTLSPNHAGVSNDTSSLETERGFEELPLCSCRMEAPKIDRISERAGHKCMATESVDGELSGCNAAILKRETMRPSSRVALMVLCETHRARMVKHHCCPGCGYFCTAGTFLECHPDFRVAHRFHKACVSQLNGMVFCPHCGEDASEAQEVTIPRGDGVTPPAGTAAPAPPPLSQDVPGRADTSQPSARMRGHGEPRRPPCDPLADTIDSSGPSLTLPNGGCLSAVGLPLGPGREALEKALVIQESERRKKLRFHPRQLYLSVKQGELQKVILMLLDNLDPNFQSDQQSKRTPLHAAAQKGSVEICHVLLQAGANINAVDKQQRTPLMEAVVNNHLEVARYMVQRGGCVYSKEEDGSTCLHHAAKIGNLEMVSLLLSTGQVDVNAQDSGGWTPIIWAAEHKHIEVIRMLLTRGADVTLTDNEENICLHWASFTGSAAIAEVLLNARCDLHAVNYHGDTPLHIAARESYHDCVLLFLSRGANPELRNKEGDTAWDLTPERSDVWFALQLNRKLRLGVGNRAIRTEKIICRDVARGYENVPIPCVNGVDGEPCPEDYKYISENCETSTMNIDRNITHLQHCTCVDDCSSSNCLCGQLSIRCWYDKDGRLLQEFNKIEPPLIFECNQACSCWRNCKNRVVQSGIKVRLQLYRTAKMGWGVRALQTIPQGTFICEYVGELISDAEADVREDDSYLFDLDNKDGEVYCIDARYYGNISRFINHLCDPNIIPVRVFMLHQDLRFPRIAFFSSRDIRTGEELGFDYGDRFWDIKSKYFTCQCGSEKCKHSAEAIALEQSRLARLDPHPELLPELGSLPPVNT
Compound `COc1cc2nc3c(c(NC4CC(C)(C)NC(C)(C)C4)c2cc1OC)CCC3` has an IC50 of 53.7 nM. Work on `COc1cc2nc3c(c(NCC4CN(c5ccccc5F)C4)c2cc1OC)CCC3` yielded an IC50 of 1740 nM. `COc1cc2nc3c(c(NC4CCN(C5CCOC5)CC4)c2cc1OC)CCC3` (centres undefined) was tested, and the IC50 was 617 nM. `COc1cc2nc3c(c(NC4CCN(C(C)C)CC4)c2cc1OC)CCCC3` showed an IC50 of at least 10000 nM.
